Where a name gives a salt, the structure may show the parent alone.
Tests used:
Human Thrombin = Human Thrombin (Homo sapiens, UniProt P00734); assay: biochemical; settings: read-out: Kass Human Thrombin (converted)
human or animal plasma [1] = assay: Anticoagulation determination in plasma: thrombin time (TT); assay type: biochemical; settings: concentration doubling thrombin time
Description: (§1) Dog plasma and rat plasma is obtained from conscious mixed-breed hounds (either sex, Hazelton-LRE, Kalamazoo, Michigan, U.S.A.) or from anesthetized male Sprague-Dawley rats (Harlan Sprague-Dawley, Inc., Indianapolis, Indiana, U.S.A.) by venipuncture into 3.8 percent citrate. Fibrinogen is prepared from in-date ACD human blood as the fraction I-2 according to previous procedures and specifications. Smith, Biochem. J., 185, 1-11 (1980); and Smith, et al., Biochemistry, 11, 2958-2967 (1972). Human fibrinogen is also purchased as 98 percent pure/plasmin free from American Diagnostica, Greenwich, Connecticut. Coagulation reagents ACTIN, Thromboplastin, and Human plasma are from Baxter Healthcare Corp., Dade Division, Miami, Florida. Bovine thrombin from Parke-Davis (Ann Detroit, Michigan) is used for coagulation assays in plasma.
(§2) Coagulation assay procedures are as previously described. Smith, et al., Thrombosis Research, 50, 163-174 (1988). A CoAScreener coagulation instrument (American LABor, Inc.) is used for all coagulation assay measurements. The prothrombin time (PT) is measured by adding 0.05 mL saline and 0.05 mL Thromboplastin-C reagent to 0.05 mL test plasma. The activated partial thromboplastin time (APTT) is measured by incubation of 0.05 mL test plasma with 0.05 mL Actin reagent for 120 seconds followed by 0.05 mL CaCl2 (0.02 M). The thrombin time (TT) is measured by adding 0.05 mL saline and 0.05 mL thrombin (10 NIH units/mL) to 0.05 mL test plasma. The compounds of Formula I are added to human or animal plasma over a wide range of concentrations to determine prolongation effects on the APTT, PT, and TT assays. Linear extrapolations are performed to estimate the concentrations required to double the clotting time for each assay.

Trypsin = molecular target: T1, Trypsin (Bos taurus, UniProt P00760); assay: biochemical; set-up: species or system Bovine; settings: read-out: Kass Trypsin (converted)
T1 sequence (P00760 24-246): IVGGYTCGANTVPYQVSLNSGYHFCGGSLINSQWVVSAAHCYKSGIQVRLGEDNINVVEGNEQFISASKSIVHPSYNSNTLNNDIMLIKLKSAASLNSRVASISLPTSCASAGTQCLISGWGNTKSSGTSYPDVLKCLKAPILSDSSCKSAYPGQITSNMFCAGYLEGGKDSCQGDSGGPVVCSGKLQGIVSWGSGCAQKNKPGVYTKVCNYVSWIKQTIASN
Description: By substantially following the procedures described above for human thrombin, and using other human blood coagulation system serine proteases and proteases of the fibrinolytic system with the appropriate chromogenic substrates, identified below, selectivity of the compounds of the present invention with respect to the coagulation factor serine proteases and with respect to the fibrinolytic system serine proteases are evaluated as well as their substantial lack of interference with serine proteases of the fibrinolytic system. Thrombin inhibitors preferably should spare fibrinolysis induced by urokinase, tissue plasminogen activator (t-PA) and streptokinase. This would be important to the therapeutic use of such agents as an adjunct to streptokinase, t-PA or urokinase thrombolytic therapy and to the use of such agents as an endogenous fibrinolysis-sparing (with respect to t-PA and urokinase) antithrombotic agent. In addition to the lack of interference with the amidase activity of the fibrinolytic proteases, such fibrinolytic system sparing can be studied by the use of human plasma clots and their lysis by the respective fibrinolytic plasminogen activators.
Human factors X, Xa, IXa, XIa, and XIIa are purchased from Enzyme Research Laboratories, South Bend, Indiana; human urokinase from Leo Pharmaceuticals, Denmark; and recombinant activated Protein C (aPC) is prepared at Eli Lilly and Co. substantially according to U.S. Patent 4,981,952. Chromogenic substrates: N-Benzoyl-Ile-Glu-Gly-Arg-p-nitroanilide (for factor Xa); N-Cbz-D-Arg-Gly-Arg-p-nitroanilide (for factor IXa assay as the factor Xa substrate); Pyroglutamyl-Pro-Arg-p-nitroanilide (for Factor XIa and for aPC); H-D-Pro-Phe-Arg-p-nitroanilide (for factor XIIa); and Pyroglutamyl-Gly-Arg-p-nitroanilide (for urokinase); are purchased from KabiVitrum, Stockholm, Sweden, or from Midwest Biotech, Fishers, Indiana. Bovine trypsin is purchased from Worthington Biochemicals, Freehold, New Jersey, and human plasma kallikrein from Kabi Vitrum, Stockholm, Sweden. Chromogenic substrate H-D-Pro-Phe-Arg-p-nitroanilide for plasma kallikrein is purchased from Kabi Vitrum, Stockholm, Sweden. N-Benzoyl-Phe-Val-Arg-p-nitroanilide, the substrate for human thrombin and for trypsin, is synthesized according to procedures described above for the compounds of the present invention, using known methods of peptide coupling from commercially available reactants or purchased from Midwest Biotech, Fishers, Indiana.

human or animal plasma [2] = assay: Anticoagulation determination in plasma: activated partial thromboplastin time (APTT); assay type: biochemical; settings: concentration doubling activated partial thromboplastin time
Description: as §1, §2

human or animal plasma [3] = assay: Anticoagulation determination in plasma: prothrombin time (PT); assay type: biochemical; settings: concentration doubling prothrombin time
Description: as §1, §2

Row | SMILES | Kd (Human Thrombin) [µM] | Human Plasma Anticoagulation 2x Clotting time (ng/mL) TT (human or animal plasma [1]) [ng/mL] | Kd (Trypsin) [µM] | Human Plasma Anticoagulation 2x Clotting time (ng/mL) APTT (human or animal plasma [2]) | Human Plasma Anticoagulation 2x Clotting time (ng/mL) PT (human or animal plasma [3])
1 | Nc1ccc(CCNC(=O)[C@@H]2CCCN2C(=O)[C@@H](CC2CCCCC2)NCC(=O)O)cc1 [Example 63, HO2CCH2-D-Cha-Pro-4-NHCH2CH2C6H4NH2·HCl] | 3.23 | 680 |  |  | 
2 | NCc1ccc(CNC(=O)[C@@H]2CCCN2C(=O)[C@@H](CC2CCCCC2)NCC(=O)O)cc1 [Example 78, HO2CCH2-D-Cha-Pro-4-NHCH2C6H4CH2NH2·HCl] | 0.0909 | 46 | 0.116 | 430 ng/mL | 760 ng/mL
3 | CCS(=O)(=O)N[C@H](CC1CCCCC1)C(=O)N1CCC[C@H]1C(=O)NCc1ccnc(N)c1 [Example 83, EtSO2-D-Cha-Pro-4-NHCH2-2-aminopyridine·HCl] | 0.417 | 91 | 33.3 | 1,000 ng/mL | 1,300 ng/mL
4 | CS(=O)(=O)CC(=O)N[C@H](CC1CCCCC1)C(=O)N1CCC[C@H]1C(=O)NCc1ccc(C(=N)N)cc1 [Example 92, MeSO2CH2CO-D-Cha-Pro-p-NHCH2C6H4C(NH)NH2·HCl] | 0.00769 | 8.9 | 0.13 | 210 ng/mL | 340 ng/mL
5 | CCS(=O)(=O)N[C@H](CC1CCCCC1)C(=O)N1CCC[C@H]1C(=O)NCc1ccc(CN)cc1 [Example 81, EtSO2-D-Cha-Pro-4-NHCH2C6H4CH2NH2·HCl] | 0.189 | 110 | 0.476 | 1,500 ng/mL | 2,700 ng/mL
6 | CCS(=O)(=O)N[C@H](CC1CCCCC1)C(=O)N1CCC[C@H]1C(=O)NCc1ccc(C(=N)N)cc1 [Example 80, EtSO2-D-Cha-Pro-4-NHCH2C6H4C(NH)NH2·HCl] | 0.000588 | 4 | 0.0111 | 40 ng/mL | 130 ng/mL
7 | CCS(=O)(=O)N[C@H](CC1CCCCC1)C(=O)N1CCC[C@H]1C(=O)NCc1ccc(N)nc1 [Example 84, EtSO2-D-Cha-Pro-5-NHCH2-2-aminopyridine·HCl] | 0.345 | 110 | 14.3 | 1,500 ng/mL | 1,900 ng/mL
8 | Nc1ccc(CCNC(=O)[C@@H]2CCCN2C(=O)[C@@H](CC2CCCCC2)NCC(=O)O)cn1 [Example 75, HO2CCH2-D-Cha-Pro-5-NHCH2CH2-2-aminopyridine·HCl] | 2.22 |  |  |  | 
9 | N=C(N)N1CC=C(CNC(=O)[C@@H]2CCCN2C(=O)[C@@H](CC2CCCCC2)NCC(=O)O)CC1 [Example 70, HO2CCH2-D-Cha-Pro-4-NHCH2-1-amidino-3,4-dehydro-piperidine·HCl] | 0.00233 | 2 | 0.102 | 160 ng/mL | 180 ng/mL
10 | N=C(N)c1ccc(CNC(=O)[C@@H]2CCCN2C(=O)[C@@H](CC2CCCCC2)NCCCC(=O)O)cc1 [Example 85, HOOCCH2CH2CH2-D-Cha-Pro-p-NHCH2C6H4C(NH)NH2·HCl] | 0.00377 | 4.9 | 0.0325 | 100 ng/mL | 197 ng/mL
11 | NCC1CCC(CNC(=O)[C@@H]2CCCN2C(=O)[C@@H](CC2CCCCC2)NCC(=O)O)CC1 (stereo partly drawn) [Example 79, HO2CCH2-D-Cha-Pro-4-NHCH2C6H10CH2NH2·HCl] | 0.5 | 140 | 4.17 | 1,700 ng/mL | 2,400 ng/mL
12 | CCS(=O)(=O)N[C@H](CC1CCCCC1)C(=O)N1CCC[C@H]1C(=O)NCc1ccc(N)cc1F [Example 82, EtSO2-D-Cha-Pro-4-NHCH2-3-F-C6H3NH2·HCl] | 0.2 | 130 |  | 3,800 ng/mL | 3,000 ng/mL
13 | N=C(N)C1=CNC(CNC(=O)[C@@H]2CCCN2C(=O)[C@@H](CC2CCCCC2)NCC(=O)O)CC1 (stereo partly drawn) [Example 68, HO2CCH2-D-Cha-Pro-2-NHCH2-5-amidino-5,6-dehydro-piperidine·HCl] | 0.00167 | 4. |  | 49 ng/mL | 190 ng/mL
14 | Nc1ccc(CNC(=O)[C@@H]2CCCN2C(=O)[C@@H](CC2CCCCC2)NCC(=O)O)cc1 [Example 62, HO2CCH2-D-Cha-Pro-4-NHCH2C6H4NH2·HCl] | 0.132 | 54 |  |  | 
15 | Nc1ccc(CNC(=O)[C@@H]2CCCN2C(=O)[C@@H](CC2CCCCC2)NCC(=O)O)cn1 [Example 74, HO2CCH2-D-Cha-Pro-5-NHCH2-2-aminopyridine·HCl] | 0.0345 | 20 |  | 420 ng/mL | 350 ng/mL
16 | Nc1ccc(CNC(=O)[C@@H]2CCCN2C(=O)[C@@H](CC2CCCCC2)NCC(=O)O)cc1F [Example 77, HO2CCH2-D-Cha-Pro-4-NHCH2-2-F-aniline·HCl] | 0.0909 | 53 |  | 1,600 ng/mL | 890 ng/mL
17 | N=C(N)C1CCC(CNC(=O)[C@@H]2CCCN2C(=O)[C@@H](CC2CCCCC2)NCC(=O)O)NC1 (stereo partly drawn) [Example 67, HO2CCH2-D-Cha-Pro-2-NHCH2-5-amidinopiperidine·HCl] | 0.0909 | 34. |  | 1,800 ng/mL | 1,300 ng/mL
18 | N=C(N)c1ccc(CNC(=O)[C@@H]2CCCN2C(=O)[C@@H](CC2CCCCC2)NCC(=O)O)s1 [Example 65] |  | 1 | 0.00175 |  | 
19 | Nc1cc(CNC(=O)[C@@H]2CCCN2C(=O)[C@@H](CC2CCCCC2)NCC(=O)O)ccn1 [Example 73, HO2CCH2-D-Cha-Pro-4-NHCH2-2-aminopyridine·HCl] | 0.0357 | 21 |  | 340 ng/mL | 330 ng/mL

Source: EP0672658B1, “Antithrombotic agents” (priority 1994, dated 1995)
